According to PubChem BioAssay (NCI):
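96-well plates; 48 h exposure; 5 concentrations. Endpoints by linear interpolation between flanking doses. Not reached: highest tested concentration assigned. The concentration for 50% growth inhibition is given as GI50. At the TGI there is no net growth.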

Key:
Experiment in all cases: inhibition of tumour cell growth, NCI panel, 48 h
HCC-2998 colon = tested on: HCC-2998 colon
BT-549 breast = tested on: BT-549 breast
SF-268 CNS = tested on: SF-268 CNS
TK-10 renal = tested on: TK-10 renal
SR leukemia = tested on: SR leukemia
NCI/ADR-RES ovarian = tested on: NCI/ADR-RES ovarian
HCT-116 colon = tested on: HCT-116 colon
CAKI-1 renal = tested on: CAKI-1 renal
OVCAR-3 ovarian = tested on: OVCAR-3 ovarian
IGROV1 ovarian = tested on: IGROV1 ovarian
NCI-H460 lung = tested on: NCI-H460 lung
SF-295 CNS = tested on: SF-295 CNS
OVCAR-4 ovarian = tested on: OVCAR-4 ovarian
SK-OV-3 ovarian = tested on: SK-OV-3 ovarian
UACC-62 melanoma = tested on: UACC-62 melanoma
MDA-MB-231 breast = tested on: MDA-MB-231 breast
786-0 renal = tested on: 786-0 renal
KM12 colon = tested on: KM12 colon
NCI-H23 lung = tested on: NCI-H23 lung
LOX IMVI melanoma = tested on: LOX IMVI melanoma
MDA-MB-435 = tested on: MDA-MB-435
K-562 leukemia = tested on: K-562 leukemia
U251 CNS = tested on: U251 CNS
SN12C renal = tested on: SN12C renal
SNB-19 CNS = tested on: SNB-19 CNS
MOLT-4 leukemia = tested on: MOLT-4 leukemia
RXF 393 renal = tested on: RXF 393 renal
EKVX NSCLC = tested on: EKVX NSCLC

FC(F)(F)c1nc(N2CCCC2)ncc1-c1nnnn1-c1ccc(Cl)cc1
TGI (HCC-2998 colon): 72.2 µM | GI50 (BT-549 breast): 31 µM | TGI (BT-549 breast): > 100 µM | GI50 (SF-268 CNS): 23.7 µM | TGI (SF-268 CNS): > 100 µM | GI50 (TK-10 renal): 15.4 µM | TGI (TK-10 renal): 75.6 µM | GI50 (SR leukemia): 2.53 µM | TGI (SR leukemia): 6.24 µM | GI50 (NCI/ADR-RES ovarian): 23 µM | TGI (NCI/ADR-RES ovarian): 62.2 µM | GI50 (HCT-116 colon): 23 µM | TGI (HCT-116 colon): 54.6 µM | GI50 (CAKI-1 renal): 17.5 µM | TGI (CAKI-1 renal): 88.2 µM | GI50 (OVCAR-3 ovarian): 18.9 µM | TGI (OVCAR-3 ovarian): 83.4 µM | GI50 (IGROV1 ovarian): 25.5 µM | TGI (IGROV1 ovarian): > 100 µM | GI50 (NCI-H460 lung): 11.7 µM | TGI (NCI-H460 lung): 90.2 µM | GI50 (SF-295 CNS): 19 µM | TGI (SF-295 CNS): > 100 µM | GI50 (OVCAR-4 ovarian): 6.7 µM | TGI (OVCAR-4 ovarian): 74.8 µM | GI50 (SK-OV-3 ovarian): 31.8 µM | TGI (SK-OV-3 ovarian): > 100 µM | GI50 (UACC-62 melanoma): 7.49 µM | TGI (UACC-62 melanoma): > 100 µM | GI50 (MDA-MB-231 breast): 24.6 µM | TGI (MDA-MB-231 breast): > 100 µM | GI50 (786-0 renal): 33.2 µM | TGI (786-0 renal): > 100 µM | GI50 (KM12 colon): 15 µM | TGI (KM12 colon): 48 µM | GI50 (NCI-H23 lung): 20 µM | TGI (NCI-H23 lung): 51.8 µM | GI50 (LOX IMVI melanoma): 15.4 µM | TGI (LOX IMVI melanoma): 49.5 µM | GI50 (MDA-MB-435): 15.2 µM | TGI (MDA-MB-435): 40.8 µM | GI50 (K-562 leukemia): 3 µM | TGI (K-562 leukemia): 22.6 µM | GI50 (U251 CNS): 33 µM | TGI (U251 CNS): > 100 µM | GI50 (SN12C renal): 26.3 µM | TGI (SN12C renal): > 100 µM | GI50 (SNB-19 CNS): 30.9 µM | TGI (SNB-19 CNS): > 100 µM | GI50 (MOLT-4 leukemia): 5.07 µM | TGI (MOLT-4 leukemia): 25 µM | GI50 (RXF 393 renal): 14.9 µM | TGI (RXF 393 renal): 51.7 µM | GI50 (EKVX NSCLC): 29 µM | TGI (EKVX NSCLC): > 100 µM
